# Laboratory results from publication PMC12668304, “A Triple Threat Against Ovarian Cancer: Os(II)‐Pt(IV)‐Ceritinib Conjugates for Photodynamic Therapy, Chemotherapy, and Immunogenic Cell Death Induction” (Angewandte Chemie (International Ed. in English), 2025).
# Read-outs that look alike come from different tables or passages of the source.
# Key:
# A2780 MCTSs [1] = experiment: (Photo-)cytotoxicity on 3D multicellular tumour spheroids, resazurin assay; format: cell-based, human; details: for IC50: normoxic, one week of incubation
# Description: (§1) A2780 spheroids (ca. 500 µm in diameter) were treated with increasing concentrations of the compounds and after 24 h of incubation, the medium was replaced with fresh medium, and the cells were either kept in the dark or irradiated for 1 h at 740 nm. Images of the spheroids were taken every 24 h for 3 days.
# Additionally, the phototoxicity was tested via a fluorometric resazurin assay in A2780 MCTSs (Table 3). […] (Figure S29). […] This can be attributed to the different biological endpoints and time frames of the assays: spheroid diameter was monitored over 72 h, whereas resazurin measurements were performed after 7 days, potentially capturing delayed cytotoxic effects due to differences in drug cellular uptake.
# (§2) 4 h of incubation, the conversion of resazurin into resorufin was determined upon excitation at 540 nm and measurement of its emission at 590 nm using a Cytation 5 Imaging Reader from BioTek. The obtained data was analysed with the GraphPad Prism software
# (§3) MCTS were cultured using ultra-low attachment 96 wells plates from Corning (Fisher Scientific 15329740). A2780 cells were seeded at a density of 1,500 cells per well in 100 μL of RPMI. Within 2-3 days, MCTSs have approximately 500 μm of diameter. The formation as well as integrity and diameter of the MCTSs were monitored by microscopy.
# (Photo-)cytotoxicity on 3D multicellular tumor spheroids (MCTS)
# After 2 days of growing at 37 °C in 5% CO2, the medium was removed, and MCTSs were treated by adding 100 μL of the medium in the well with increasing concentrations of compounds (Os-Pt-Cer, Os, Ceritinib, Oxaliplatin, cisplatin, and Ce6 as additional control). For untreated reference MCTSs, only half of the medium was added with fresh medium. After 24 hours, the MCTSs were divided into two identical groups. The first group was strictly kept in the dark. The second group was irradiated at 740 nm for 1 h (12.60 J·cm-2) using a LUMOS-BIO photoreactor (Atlas Photonics). After the irradiation, all groups were incubated additional 7 days. Thereafter, medium was replaced with 100 μL of fresh medium containing resazurin (0.2 mg/mL). After 24 h of incubation at 37 °C, 5% CO 2, plates were read using a SpectraMaxM2 Microplate Reader ( λexc = 540 nm; λread = 590 nm). Fluorescence data were normalised, and data were fitted using GraphPad Prism Software, and IC 50 was calculated by non - linear regression. Changes in the size and shape of MCTS were monitored every 24 h using Cytation 5 Imaging Reader from BioTek, objective x4. […]
# Figure S29. Cell viability graphs after one week of incubation. Studied compounds were incubated for 24 h, thereafter the medium was renovated. For PDT, plates were irradiated at 740 nm for 1h using a LUMOS-BIO photoreactor (Atlas Photonics). For both PDT and regular cytotoxicity, cells were incubated for one week at 37 °C, 5 % CO2. The medium was renovated each two days. Then, the medium was replaced with 100 µL of fresh medium containing 0.2 mg/mL resazurin (Acros Organics). After 24 h of incubation, the fluorescence signal of the resazurin product was recorded (λexc = 540 nm; λem = 590 nm) using a Cytation 5 Cell Imaging Multi-Mode Reader (Biotek - Agilent).
# (1 picture or pasted object on this page, not shown here)
# A2780 MCTSs [2] = experiment: Growth kinetics (diameter) of spheroids; format: cell-based, human; details: 0.5 µM, irradiated 1 h at 740 nm, after 72 h
# Description: as §1
# Figure 4 Changes in the growth kinetics of A2780 MCTSs treated with complex Os‐Pt‐Cer, Os, ceritinib, oxaliplatin, and cisplatin at 0.5 and 5 µM for irradiated and dark groups, respectively, and non‐treated as control. Images were collected on 0, 4, 24, and 72 h after the creation of the groups. Scale bar: 1000 µm.
# as §2, §3
# (Photo-)cytotoxicity on 3D multicellular tumor spheroids (MCTS) […]
# Intracellular distribution by confocal fluorescence microscopy […]
# Images were analysed with LAS X Flim FCS software. […]
# [3] = Homo sapiens, 168 h, dark, read-out: IC50 Dark
structure (smiles),measurement,setting,value
"C=Cc1c(C)c2cc3nc(c(CC(=O)O)c4[nH]c(cc5nc(cc1[nH]2)C(C)=C5CC)c(C)c4C(=O)O)[C@@H](CCC(=O)O)[C@@H]3C [Ce6, Chlorin e6]",PI,A2780 MCTSs [1],≥7
same,IC50,A2780 MCTSs [1]; [3],> 5000 nM
same,IC50,"A2780 MCTSs [1]; Homo sapiens, 740 nm (60 min, 12.60 J·cm^−2), read-out: IC50 Irrad. 740 nm",700 ± 400 nM
Cc1cc(Nc2ncc(Cl)c(Nc3ccccc3S(=O)(=O)C(C)C)n2)c(OC(C)C)cc1C1CCNCC1 [Ceritinib],IC50,A2780 MCTSs [1]; [3],> 5000 nM
same,change of MCTS diameter,A2780 MCTSs [2],increased with time
O=C1[O][Pt]2([NH][C@@H]3CCCC[C@H]3[NH]2)[O]C1=O [Oxaliplatin],IC50,"A2780 MCTSs [1]; dark, read-out: IC50 Dark",500 ± 700 nM
same,change of MCTS diameter,A2780 MCTSs [2],increased with time
